Data set [1] concerns hepatocarcinoma PDXs. Kind of data set: Hepatocarcinoma PDXs treatment. It is filed as in vivo, Balb/c nude mice. The note with it: 20 mg/kg and 40 mg/kg i.p. ten times, day 20. From the text:
Balb/c nude mice (female, 6-week-old) were subcutaneously injected with 2 × 10^6 HepG2 cells on the left and right flanks to construct cell-derived xenografts (CDXs). The patient-derived xenografts (PDXs) samples were gifts from Dr Changliang Shan of Nankai University. C57 BL/6N mice (female, 5-week-old) were subcutaneously injected with 2 × 10^6 Hepa1-6 cells mixed with matrigel (ABW, 0827265) on the left and right flanks. The mice were inoculated with hepatic carcinoma CDXs or PDXs for at least four days, and treated (i.p.) by vehicle and Tc3. […] Tumor volume = 4π/3 × (Length/2) × (Width/2)^2. All animal experiments were carried out in accordance with the recommendations of Requirements of the Ethical Review System of Biomedical Research Involving Human by National Health and Family Planning Commission of China and Nankai University Ethics Committee with written informed consent complying with the Declaration of Helsinki (IAEC ID: 2023-STDWLL-000249).

Data set [2] relates to HepG2, SK-Hep1, and PLC-PRF5 cells. In words: Cell proliferation assays (growth curve, colony formation). It is filed as cell-based, human. The note with it: 0-4 μM. On the procedure: For colony formation, hepatic carcinoma cells were seeded in 6-well plates and treated with Tc3 for almost 10 days, and the cell colonies were photographed for statistical analysis.
Data set [3] can be described thus: Hydrolytic stability in phosphate buffer (HPLC). The note with it: phosphate buffer of PH 7.4 over 150 minutes. The class given is physicochemical. The method, then: The stability of Tc3 was evaluated by an UltiMate 3000 Dual-Gradient HPLC system (Sunnyvale, CA, USA). The samples of solution were chromatographed on ZORBAX Eclipse XDB-C18 column(5 µm, 4.6 × 150 mm, Agela Technologies), using an eluent composed of: water (95%) and acetonitrile (5%) at a flow rate of 1.0 mL/min. […] The hydrolysis of Tc3 was carried out in a phosphate buffer of PH 7.4 (50 ug/ml, initial concentration of 5 mM in methanol) over 150 minutes.

As for `CC(C)[C@H](N)C(=O)NCCCn1cc(/C=C2\S/C(=N\c3ccc(N4CCOCC4)cc3)N(Cc3ccc(F)cc3)C2=O)c2ccccc21` [Tc3], in data set [1], the “tumor size and weight of PDXs” value was “significantly reduced the tumor size and weight”. Moreover, the “tumor proliferation (growth curve, colony formation)” value in data set [2] is on record as “significantly inhibited tumor proliferation”. Moreover, the stability to hydrolysis result in data set [3] was “no changes”.

The values above are taken from paper PMC11729550, “Discovery of indole analogue Tc3 as a potent pyroptosis inducer and identification of its combination strategy against hepatic carcinoma” (Theranostics, 2025).
